Counter-ions that a name gives are not always drawn.
Legend:
[1] = target: CD73 activity in U138-MG cells (Homo sapiens (Human), UniProt P21589); test: U138-MG inhibition assay (inorganic phosphate from AMP, PiColorLock Gold); type: cell-based; details: 100 μM AMP, 30 min pre-incubation, 1 hour at 37° C.
Experimental: U138-MG cells from ATCC are cultured in DMEM (Gibco 31966) with 10% FBS. Cells are seeded into 96-well culture plates (5,000 cell/well) in 100 μL of media for 24 hr. Cells are washed twice with 200 μL of assay buffer (20 mM HEPES, pH 7.4; 137 mM NaCl; 5.4 mM KCl; 1.3 mM CaCl2; 4.2 mM NaHCO3; 1 mg/mL glucose) to remove residual inorganic phosphate. CD73 inhibitor is added to each well in 100 μl volume and preincubated for 30 mins at 37° C. An equal volume of AMP substrate (Sigma A1572) is added to each well at a final concentration of 100 μM and incubated at 37° C. for 1 hour. Control wells containing cells but lacking added AMP, define the assay signal equivalent to 100% inhibition of CD73 activity. Supernatant is removed for measurement of inorganic phosphate using the PiColorLock Gold kit (Abcam, ab 270004).
The IC50 values of test compounds are determined as the inflection point of the sigmoidal concentration response curve.

[2] = target: human (h)CD73 (amino acids Trp27-Lys547) (Homo sapiens, UniProt P21589); test: CD73 inhibition assay (Malachite Green phosphate detection); type: biochemical; details: 250 pM hCD73, 12.5 μM AMP, 20 min pre-incubation, absorbance 620 nm
Experimental: Compound inhibition of human (h)CD73 (amino acids Trp27-Lys547, R&D Systems 5795-EN-500) enzymatic activity was tested via the Malachite Green Phosphate Detection Kit (R&D DY996). Experiments were performed in 20 μL Tris buffer (25 mM Tris pH 7.5, 5 mM MgCl2, 0.002% Tween20), with 250 pM of hCD73. Test compounds of interest were prepared in a threefold serial dilution in DMSO and added to the assay to give the appropriate final concentration, with the assay DMSO concentration being 1%. Compounds were pre-incubated for 20 minutes with hCD73 in a 384 well clear plate (Greiner 781101), followed by the addition of adenosine monophosphate (AMP) to 12.5 μM. The enzymatic reaction was carried out for 20 min at room temperature. 5 μL of Malachite kit reagent A was added to stop the reaction (contains 3M H2SO4) and after 10 min, 5 μL of Malachite kit reagent B was added (Malachite Green). After 30 min, absorbance at 620 nm was read on a BMG Pherastar FSX.
Data were normalised to measurements in the absence of competing compound (0% inhibition) and in the presence of 10 μM control compound (100% inhibition).

[3] = target: CD73 in whole blood (Homo sapiens (Human), UniProt P21589); test: Whole blood AMP Glo assay; type: cell-based; details: whole blood of healthy volunteers, 10 μM AMP, 30 min pre-incubation, 15 min at 37° C., levamisole 1.5 mM
Sequence of CD73 in whole blood (P21589 27-574): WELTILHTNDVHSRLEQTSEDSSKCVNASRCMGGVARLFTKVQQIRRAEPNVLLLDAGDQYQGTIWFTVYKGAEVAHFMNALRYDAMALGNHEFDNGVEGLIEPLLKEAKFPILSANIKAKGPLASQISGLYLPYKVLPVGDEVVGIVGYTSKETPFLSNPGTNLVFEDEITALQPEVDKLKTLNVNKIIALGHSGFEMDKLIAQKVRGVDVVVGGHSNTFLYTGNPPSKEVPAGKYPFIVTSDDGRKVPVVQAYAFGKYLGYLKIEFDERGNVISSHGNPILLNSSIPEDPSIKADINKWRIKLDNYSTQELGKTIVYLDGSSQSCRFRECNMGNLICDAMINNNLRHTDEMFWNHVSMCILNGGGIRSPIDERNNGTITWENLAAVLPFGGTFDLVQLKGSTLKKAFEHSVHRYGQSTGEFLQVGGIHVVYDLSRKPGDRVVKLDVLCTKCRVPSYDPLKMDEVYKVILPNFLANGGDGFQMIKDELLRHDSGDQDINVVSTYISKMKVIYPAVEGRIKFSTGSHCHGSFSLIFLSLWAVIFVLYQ
Experimental: Blood is drawn from healthy volunteers by venepuncture and anti-coagulated with Lithium Heparin (10 IU/mi). 150 μl of blood is added to U-bottom polypropylene 96-well assay plates pre-filled with 20 μl of compound dilutions prepared in RPMI also containing the Tissue Non-specific Alkaline Phosphatase inhibitor Levamisole (final assay concentration 1.5 mM). Control wells to define uninhibited CD73 contain DMSO in place of compound. Control wells to define complete stabilization of AMP attributable to CD73 contain LY3475070 (CAS: 2375815-63-5) at 30 μM final assay concentration.
Compounds are pre-incubated with whole blood at 37° C. for 30 minutes. Following this, AMP is added in a 30 μl volume for a final assay concentration of 10 μM, mixed, and the plates are incubated for 15 minutes at 37° C. Final DMSO concentration/well is 0.6% and final volume/well is 200 μL. After incubating with AMP, the plates are placed on ice and then centrifuged at 2000 g for 10 minutes at 4° C. Plasma is removed and then diluted 1:10 with pre-chilled HBSS (Ca2+& Mg2+free) and kept on ice.
The stabilized AMP concentration in diluted plasma is measured using AMP-Glo kit (Promega), in parallel with a standard curve of known AMP concentrations, with a final volume of 40 μl in white flat bottom half-well 96-well plates (Corning). Signal is measured by Luminescence. The IC50 values of test compounds are determined as the inflection point of the sigmoidal concentration response curve.

Sequence of CD73 activity in U138-MG cells (P21589 27-574): as above

Row | IC50 [1] | IC50 [2] | IC50 [3] | Compound
1 | 20 nM | 65 nM | 16 nM | CC1(C)CN(c2nccc3nn(-c4c[nH]c(=O)[nH]c4=O)cc23)CC1(F)F [Example 27, 5-[4-(3,3-Difluoro-4,4-dimethyl-pyrrolidin-1-yl)pyrazolo[4,3-c]pyridin-2-yl]-1H-pyrimidine-2,4-dione]
2 | 46.1 nM | 11.1 nM | 47 nM | O=c1[nH]cc(-c2cc3c(N4CCC(OCCN5CCCCC5)C4)ncnc3s2)c(=O)[nH]1 (stereo not drawn) [Example 2, 5-[4-[3-[2-(1-Piperidyl)ethoxy]pyrrolidin-1-yl]thieno[2,3-d]pyrimidin-6-yl]-1H-pyrimidine-2,4-dione]
3 | 70.8 nM | 100 nM | 40.2 nM | O=c1[nH]cc(-c2cc3c(N4CCC(OCCN5CCC(C(F)(F)F)CC5)C4)ncnc3o2)c(=O)[nH]1 (stereo not drawn) [Example 21, 5-[4-[3-[2-[4-(Trifluoromethyl)-1-piperidyl]ethoxy]pyrrolidine-1-yl]furo[2,3-d]pyrimidin-6-yl]-1H-pyrimidine-2,4-dione]
4 | 177 nM | 62.8 nM | 549 nM | O=c1[nH]cc(-c2cc3c(N4CCC(OCCN5CCCCC5)C4)ccnc3s2)c(=O)[nH]1 (stereo not drawn) [Example 14, 5-[4-[3-[2-(1-Piperidyl)ethoxy]pyrrolidin-1-yl]thieno[2,3-b]pyridin-2-yl]-1H-pyrimidine-2,4-dione]
5 | 28.3 nM | 137 nM | 652 nM | O=c1[nH]cc(-c2cc3c(N4CC(F)(F)C5(CC5)C4)ncnc3o2)c(=O)[nH]1 [Example 19.3, 5-[4-(7,7-Difluoro-5-azaspiro[2.4]heptan-5-yl)furo[2,3-d]pyrimidin-6-yl]-1H-pyrimidine-2,4-dione]
6 | 35.3 nM | 95 nM | 14.1 nM | O=c1[nH]cc(-n2cc3c(N4C[C@H]5CCC[C@H]5C4)ncnc3n2)c(=O)[nH]1 [Example 13.4, 5-[4-[(3aR,6aS)-3,3a,4,5,6,6a-Hexahydro-1H-cyclopenta[c]pyrrol-2-yl]pyrazolo[3,4-d]pyrimidin-2-yl]-1H-pyrimidine-2,4-dione]
7 | 84.5 nM | 136 nM | 65.5 nM | O=C(OC1CN(c2ncnc3oc(-c4c[nH]c(=O)[nH]c4=O)cc23)CC1(F)F)N1CCOCC1 (stereo not drawn) [Example 22, [1-[6-(2,4-Dioxo-1H-pyrimidin-5-yl)furo[2,3-d]pyrimidin-4-yl]-4,4-difluoro-pyrrolidin-3-yl]morpholine-4-carboxylate]
8 | 7.2 nM | 22.8 nM | 12.5 nM | O=c1[nH]cc(-c2cc3c(N4CCC(OCCN5CCCCC5)C4)ncnc3o2)c(=O)[nH]1 (stereo not drawn) [Example 7, 5-[4-[3-[2-(1-Piperidyl)ethoxy]pyrrolidin-1-yl]furo[2,3-d]pyrimidin-6-yl]-1H-pyrimidine-2,4-dione formate salt]
9 | 8 nM | 52 nM | 47 nM | CC1(C)CN(c2ncc(C#N)c3nn(-c4c[nH]c(=O)[nH]c4=O)cc23)CC1(F)F [Example 29, 4-(3,3-difluoro-4,4-dimethyl-pyrrolidin-1-yl)-2-(2,4-dioxo-1H-pyrimidin-5-yl)pyrazolo[4,3-c]pyridine-7-carbonitrile]
10 | 65.6 nM | 139 nM | 56.5 nM | O=c1[nH]cc(-c2nc3c(N4CCC(OCCN5CCCCC5)C4)ncnc3[nH]2)c(=O)[nH]1 (stereo not drawn) [Example 15, 5-[6-[3-[2-(1-Piperidyl)ethoxy]pyrrolidin-1-yl]-9H-purin-8-yl]-1H-pyrimidine-2,4-dione]
11 | 11.8 nM | 35.5 nM | 1.4 nM | N#Cc1ccc(OC2CCN(c3ncnc4nn(-c5c[nH]c(=O)[nH]c5=O)cc34)C2)nc1 (stereo not drawn) [Example 24, 6-[1-[2-(2,4-Dioxo-1H-pyrimidin-5-yl)pyrazolo[3,4-d]pyrimidin-4-yl]pyrrolidine-3-yl]oxypyridine-3-carbonitrile]
12 | 2.4 nM | 37.1 nM | 1.15 nM | O=c1[nH]cc(-n2cc3c(N4CC(F)(F)C5(CC5)C4)ncnc3n2)c(=O)[nH]1 [Example 13.1, 5-[4-(7,7-Difluoro-5-azaspiro[2.4]heptan-5-yl)pyrazolo[3,4-d]pyrimidin-2-yl]-1H-pyrimidine-2,4-dione]
13 | 61.1 nM | 85.4 nM | 50.1 nM | O=c1[nH]cc(-c2cc3c(N4CCC(OCCN5CCC(F)(F)CC5)C4)ncnn3c2)c(=O)[nH]1 (stereo not drawn) [Example 10.1, 5-[4-[3-[2-(4,4-Difluoro-1-piperidyl)ethoxy]pyrrolidin-1-yl]pyrrolo[2,1-f][1,2,4]triazin-6-yl]-1H-pyrimidine-2,4-dione]
14 | 3.6 nM | 15 nM | 20 nM | O=c1[nH]cc(-n2cc3c(N4CC(F)(F)C5(CC5)C4)ncc(Cl)c3n2)c(=O)[nH]1 [Example 28.1, 5-[7-chloro-4-(7,7-difluoro-5-azaspiro[2.4]heptan-5-yl)pyrazolo[4,3-c]pyridin-2-yl]-1H-pyrimidine-2,4-dione]
15 | 38.3 nM | 42.3 nM | 645 nM | O=c1[nH]cc(-c2cc3c(N4CC(F)(F)C5(CCC5)C4)nccn3n2)c(=O)[nH]1 [Example 25.1, 5-[4-(8,8-Difluoro-6-azaspiro[3.4]octan-6-yl)pyrazolo[1,5-a]pyrazin-2-yl]-1H-pyrimidine-2,4-dione]
16 | 22 nM | 58 nM | 18000 nM | CC1(C)CN(c2ncc(C(F)(F)F)n3nc(-c4c[nH]c(=O)[nH]c4=O)cc23)CC1(F)F [Example 25.9, 5-[4-(3,3-difluoro-4,4-dimethyl-pyrrolidin-1-yl)-7-(trifluoromethyl)pyrazolo[1,5-a]pyrazin-2-yl]-1H-pyrimidine-2,4-dione]
17 | 76.6 nM | 74.3 nM | 254 nM | CN1CCOC(COC2CCN(c3ncnc4sc(-c5c[nH]c(=O)[nH]c5=O)cc34)C2)C1 (stereo not drawn) [Example 4.4, 5-[4-[3-[(4-Methylmorpholin-2-yl)methoxy]pyrrolidine-1-yl]thieno[2,3-d]pyrimidin-6-yl]-1H-pyrimidine-2,4-dione]
18 | 91.1 nM | 62.5 nM | 118 nM | O=C1N=CC(c2cc3c(N4CCC(OCCN5CCCCC5)C4)nc(Cl)nn3c2)C(=O)N1 (stereo not drawn) [Example 18, 5-[2-Chloro-4-[3-[2-(1-piperidyl)ethoxy]pyrrolidin-1-yl]pyrrolo[2,1-f][1,2,4]triazin-6-yl]-5H-pyrimidine-2,4-dione]
19 | 49.2 nM | 303 nM | 5.5 nM | O=c1[nH]cc(-n2cc3c(N4C[C@H]5COC[C@H]5C4)ncnc3n2)c(=O)[nH]1 [Example 13.9, 5-[4-[(3aR,6aS)-1,3,3a,4,6,6a-Hexahydrofuro[3,4-c]pyrrol-5-yl]pyrazolo[3,4-d]pyrimidin-2-yl]-1H-pyrimidine-2,4-dione]
20 | 428 nM | 96 nM | 782 nM | O=c1[nH]cc(-c2cc3c(N4CCC(OCc5ccccn5)C4)ncnc3s2)c(=O)[nH]1 (stereo not drawn) [Example 4.1, 5-[4-[3-(2-pyridylmethoxy)pyrrolidine-1-yl]thieno[2,3-d]pyrimidin-6-yl]-1H-pyrimidine-2,4-dione formate salt]
21 | 12.1 nM | 47.6 nM | 1.5 nM | O=c1[nH]cc(-n2cc3c(N4CC(F)(F)C(F)(F)C4)ncnc3n2)c(=O)[nH]1 [Example 13.8, 5-[4-(3,3,4,4-Tetrafluoropyrrolidin-1-yl)pyrazolo[3,4-d]pyrimidin-2-yl]-1H-pyrimidine-2,4-dione]

Source: patent US20250340565A1, “CD73 INHIBITOR COMPOUNDS” (AdoRx Therapeutics Limited, priority 2022, published 2025)
